# Assay results taken from ChEMBL document CHEMBL1151631, “Plant anticancer agents, XXXIV. Cucurbitacins from Elaeocarpus dolichostylus” (1984).
# The source made the active and inactive calls. The rule behind the calls is not given here.
# Tests used:
# L1210 = experiment: In vivo cytotoxicity against mouse L1210 cells at 300 to 400 mg/kg relative to control; assay type: functional, organism-based
# P388 = experiment: Cytotoxicity against mouse P388 cells; assay type: functional; conditions: read-out: ED50 (the source's name)
# KB = experiment: Cytotoxicity against human KB cells; assay type: functional; conditions: read-out: ED50 (the source's name)
Structure (SMILES),Activity (L1210),EC50 (P388),EC50 (KB)
Cc1cccc2c1C(=O)C1[C@H]3CCCN3CC[C@H]1O2 (some centres undefined),inactive,–,–
CC(=O)[C@H]1[C@H](O)C[C@@]2(C)[C@@H]3CC=C4[C@@H](C[C@H](O)[C@@H](O)C4(C)C)[C@]3(C)C(=O)C[C@]12C [HEXANORCUCURBITACIN F],–,> 50 µg/mL,> 50 µg/mL
Cc1cccc2c1C(=O)[C@H]1[C@H](CCN3CCC[C@H]13)O2,inactive,–,–
C[C@@H]1CC=CC2=C1C(=O)[C@H]1[C@H](CCN3CCC[C@H]13)O2,inactive,–,–
CC(C)(O)CCC(=O)[C@](C)(O)[C@H]1[C@H](O)C[C@@]2(C)[C@@H]3CC=C4[C@@H](C[C@H](O)[C@@H](O)C4(C)C)[C@]3(C)C(=O)C[C@]12C,–,> 50 µg/mL,> 50 µg/mL
CC(C)(O)/C=C/C(=O)[C@](C)(O)[C@H]1[C@H](O)C[C@@]2(C)[C@@H]3CC=C4[C@@H](C[C@H](O)[C@@H](O)C4(C)C)[C@]3(C)C(=O)C[C@]12C [CUCURBITACIN F],–,0.04 µg/mL,0.074 µg/mL
